Results reported in US20070049593A1 (priority 2004, published 2007).
Structures can show the parent of a compound that is named as a salt.

target: T1, HCV polymerase (Hepatitis C virus genotype 1b, UniProt P26663); test: biochemical; parameters: species or system HCV BK strain
T1 construct: a region encoding NS5B (J Virol 1991 March, 65(3), 1105-13, 544 amino acids after deletion of 47 amino acids on the C-terminal); 6xHis (C); made in house; host or cells: Escherichia coli
Outline: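 His-tagged NS5B (BK strain, 47-aa C-terminal deletion, E. coli-expressed) at 0.5 μg/ml copied 5 μg/ml run-off RNA bearing the HCV 3′ UTR with 2 μM UTP plus [3H]UTP, 50 μM ATP/GTP, in pH 7.5 Tris with 5 mM MgCl2, 25 °C, 90 min. TCA-precipitated RNA was counted and IC50 calculated.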

T1 sequence (P26663 2420-2963): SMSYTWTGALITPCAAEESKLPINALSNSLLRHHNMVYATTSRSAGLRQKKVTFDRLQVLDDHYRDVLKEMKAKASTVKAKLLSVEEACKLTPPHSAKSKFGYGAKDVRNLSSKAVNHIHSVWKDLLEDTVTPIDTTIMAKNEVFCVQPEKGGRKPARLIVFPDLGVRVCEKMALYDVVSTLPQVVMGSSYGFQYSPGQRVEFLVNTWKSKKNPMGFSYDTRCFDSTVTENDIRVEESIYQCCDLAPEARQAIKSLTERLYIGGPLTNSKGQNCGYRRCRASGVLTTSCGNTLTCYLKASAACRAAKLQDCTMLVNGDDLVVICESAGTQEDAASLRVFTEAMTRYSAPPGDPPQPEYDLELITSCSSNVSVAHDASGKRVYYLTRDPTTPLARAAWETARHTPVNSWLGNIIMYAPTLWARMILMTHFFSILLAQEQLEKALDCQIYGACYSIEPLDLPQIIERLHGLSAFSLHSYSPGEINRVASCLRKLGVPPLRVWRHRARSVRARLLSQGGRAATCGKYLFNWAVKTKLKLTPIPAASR

Question: With `CCC1CCCCN1CCN1CCn2c(c(C3CCCCC3)c3ccc(C(=O)O)cc32)-c2ccc(C)cc21` (centres unmarked) [Example 1-333, 13-cyclohexyl-5-[2-(2-ethylpiperidin-1-yl)ethyl]-3-methyl-6,7-dihydro-5H-benzo[5,6][1,4]diazepino[7,1-a]indole-10-carboxylic acid dihydrochloride] as the compound, how does the IC50 read?
Answer: < 100 nM

Question: `CCC1CCCCN1CCN1CCn2c(c(C3CCCCC3)c3ccc(C(=O)O)cc32)-c2ccc(Cl)cc21` (centres unmarked) [Example 1-334, 3-chloro-13-cyclohexyl-5-[2-(2-ethylpiperidin-1-yl)ethyl]-6,7-dihydro-5H-benzo[5,6][1,4]diazepino[7,1-a]indole-10-carboxylic acid dihydrochloride] was tested. Which IC50 did it give?
Answer: < 100 nM

Question: How did the IC50 turn out when `CC[C@H]1CCCN(CCN2CCn3c(c(C4CCCCC4)c4ccc(C(=O)O)cc43)-c3ccc(Cl)cc32)C1` [Example 1-335, 3-chloro-13-cyclohexyl-5-[2-((S)-3-ethylpiperidin-1-yl)ethyl]-6,7-dihydro-5H-benzo[5,6][1,4]diazepino[7,1-a]indole-10-carboxylic acid dihydrochloride] was run?
Answer: < 100 nM

Question: With `CC[C@@H]1CCCN(CCN2CCn3c(c(C4CCCCC4)c4ccc(C(=O)O)cc43)-c3ccc(Cl)cc32)C1` [Example 1-336, 3-chloro-13-cyclohexyl-5-[2-((R)-3-ethylpiperidin-1-yl)ethyl]-6,7-dihydro-5H-benzo[5,6][1,4]diazepino[7,1-a]indole-10-carboxylic acid dihydrochloride] as the compound, how does the IC50 read?
Answer: < 100 nM

Question: `CC(C)c1ccc2c(c1)N(CCN1CCCCCC1)CCn1c-2c(C2CCCCC2)c2ccc(C(=O)O)cc21` [Example 1-337, 5-[2-(azepan-1-yl)ethyl]-13-cyclohexyl-3-isopropyl-6,7-dihydro-5H-benzo[5,6][1,4]diazepino[7,1-a]indole-10-carboxylic acid dihydrochloride] was tested. Which IC50 did it give?
Answer: < 100 nM

Question: Which IC50 does the source give for `CCc1ccc2c(c1)N(CCN1CCCCCC1)CCn1c-2c(C2CCCCC2)c2ccc(C(=O)O)cc21` [Example 1-338, 5-[2-(azepan-1-yl)ethyl]-13-cyclohexyl-3-ethyl-6,7-dihydro-5H-benzo[5,6][1,4]diazepino[7,1-a]indole-10-carboxylic acid dihydrochloride] here?
Answer: < 100 nM

Question: Which IC50 does the source give for `CCc1ccc2c(c1)N(CCN1CCCC(C)C1)CCn1c-2c(C2CCCCC2)c2ccc(C(=O)O)cc21` (centres unmarked) [Example 1-339, 13-cyclohexyl-3-ethyl-5-[2-(3-methylpiperidin-1-yl)ethyl]-6,7-dihydro-5H-benzo[5,6][1,4]diazepino[7,1-a]indole-10-carboxylic acid dihydrochloride] here?
Answer: < 100 nM

Question: Which IC50 does the source give for `CC1CCCN(CCN2CCn3c(c(C4CCCCC4)c4ccc(C(=O)O)cc43)-c3ccc(C(C)C)cc32)C1` (centres unmarked) [Example 1-340, 13-cyclohexyl-3-isopropyl-5-[2-(3-methylpiperidin-1-yl)ethyl]-6,7-dihydro-5H-benzo[5,6][1,4]diazepino[7,1-a]indole-10-carboxylic acid dihydrochloride] here?
Answer: < 100 nM

Question: For `CCC1CCCN(CCN2CCn3c(c(C4CCCCC4)c4ccc(C(=O)O)cc43)-c3ccc(C(C)C)cc32)C1` (centres unmarked) [Example 1-341, 13-cyclohexyl-5-[2-(3-ethylpiperidin-1-yl)ethyl]-3-isopropyl-6,7-dihydro-5H-benzo[5,6][1,4]diazepino[7,1-a]indole-10-carboxylic acid dihydrochloride], which IC50 is on record?
Answer: < 100 nM

Question: How did the IC50 turn out when `O=C(O)c1ccc2c(C3CCCCC3)c3n(c2c1)CCN(CCC1CCCN(C2CC2)C1)c1cc(Cl)ccc1-3` (centres unmarked) [Example 1-342, 3-chloro-13-cyclohexyl-5-[2-(1-cyclopropylpiperidin-3-yl)ethyl]-6,7-dihydro-5H-benzo[5,6][1,4]diazepino[7,1-a]indole-10-carboxylic acid dihydrochloride] was run?
Answer: < 100 nM

Question: Which IC50 does the source give for `CCCc1ccc2c(c1)N(CCN1CCCCC1)CCn1c-2c(C2CCCCC2)c2ccc(C(=O)O)cc21` [Example 1-343, 13-cyclohexyl-5-[2-(piperidin-1-yl)ethyl]-3-propyl-6,7-dihydro-5H-benzo[5,6][1,4]diazepino[7,1-a]indole-10-carboxylic acid dihydrochloride] here?
Answer: < 100 nM
